Patent US7008636B2, “2,3,5-substituted biphenyls useful in the treatment of insulin resistance and hyperglycemia” (Wyeth, priority 1998, dated 2006)
Where a name gives a salt, the structure may show the parent alone.

The compounds below were run against T1, recombinant, human protein tyrosine phosphatase (PTP) 1B (hPTP1B) (Homo sapiens, UniProt P18031) (assay: Inhibition of tri-phosphorylated insulin receptor dodecaphosphopeptide dephosphorylation by hPTP1B). Settings: 50 μM IR triphosphopeptide substrate, 5 min preincubation and 5 min reaction at 37° C., malachite green-ammonium molybdate phosphate detection.
T1 construct: made in house
T1 sequence (P18031 1-435): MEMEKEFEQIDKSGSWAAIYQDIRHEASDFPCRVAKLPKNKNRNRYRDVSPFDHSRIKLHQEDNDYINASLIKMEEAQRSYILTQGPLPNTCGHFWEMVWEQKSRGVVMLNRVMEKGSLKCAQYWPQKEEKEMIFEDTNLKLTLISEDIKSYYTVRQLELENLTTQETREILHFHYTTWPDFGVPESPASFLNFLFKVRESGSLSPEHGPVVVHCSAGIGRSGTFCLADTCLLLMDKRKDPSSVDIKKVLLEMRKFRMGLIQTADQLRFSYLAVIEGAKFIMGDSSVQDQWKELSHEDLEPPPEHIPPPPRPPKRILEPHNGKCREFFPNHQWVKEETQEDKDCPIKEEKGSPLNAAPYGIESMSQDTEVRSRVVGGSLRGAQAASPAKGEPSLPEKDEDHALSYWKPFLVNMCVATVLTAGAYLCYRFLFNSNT
Type: biochemical

| Compound | IC50 |
| --- | --- |
| CCCCCCCCCCCCNC(=O)c1cc(-c2cccc(Cl)c2)c(OCC(=O)O)c(-c2cccc(Cl)c2)c1 [Example 1, (3,3″-Dichloro-5′-dodecylcarbamoyl-[1,1′;3′,1″]terphenyl-2′-yloxy)-acetic acid] | 0.063 µM |
| CCCCCCCCCCCCNC(=O)c1cc(Br)c(OCC(=O)O)c(-c2cccc(Cl)c2)c1 [Example 2, (3-Bromo-3′-chloro-5-dodecylcarbamoyl-biphenyl-2-yloxy)acetic acid] | 0.183 µM |
| O=C(O)COc1c(-c2cccc(Cl)c2)cc(C(=O)NCCCCCCCCc2ccccc2)cc1-c1cccc(Cl)c1 [Example 3, [3,3″-Dichloro-5′-(8-phenyl-octylcarbamoyl)-[1,1′;3′,1″]terphenyl-2′-yloxy]-acetic acid] | 0.111 µM |
| CCCCCCCCCCCCNC(=O)c1cc(-c2cccc(Cl)c2)c(OCCOCC(=O)O)c(-c2cccc(Cl)c2)c1 [Example 12] | 0.015 µM |
| CCCCCCCCCCCCNC(=O)c1cc(-c2ccc(F)c(Cl)c2)c(OCC(=O)O)c(-c2ccc(F)c(Cl)c2)c1 [Example 24, (3,3″-Dichloro-5′-dodecylcarbamoyl-4,4″-difluoro[1,1′;3′,1″]terphenyl(-2′-yloxy)-acetic acid sodium salt] | 0.044 µM |
| O=C(O)COc1c(-c2ccc(F)c(Cl)c2)cc(C(=O)NCCCCCCCCc2ccccc2)cc1-c1ccc(F)c(Cl)c1 [Example 25, [3,3″-Dichloro-4-4″difluoro-5′-(8-phenyl-octylcarbamoyl)[-1,1′;3′,1″]terphenyl-2′-yloxy]-acetic acid] | 0.123 µM |
| CCCCCCCCCCCCNC(=O)c1cc(Br)c(OCC(=O)O)c(-c2ccc(OC)cc2)c1 [Example 31, (3-Bromo-5-dodecylcarbamoyl-4′-methoxy-biphenyl-2-yloxy)-acetic acid] | 0.203 µM |
| CCCCCCCCOc1cc(-c2cccc(OC)c2)c(OCC(=O)O)c(-c2cccc(OC)c2)c1 [Example 50, (3,3″-Dimethoxy-5′-octyloxy-[1,1′;3′,1″]terphenyl-2′-yloxy)acetic acid] | 0.254 µM |
| O=C(O)COc1c(-c2cccc(C(F)(F)F)c2)cc(C(=O)NCCCCCCCCc2ccccc2)cc1-c1ccccc1F [Example 108, [2″-Fluoro-5′-(8-phenyl-octylcarbamoyl)-3-trifluoromethyl-[1,1′;3′,1″]terphenyl-2′-yloxy)-acetic acid] | 0.45 µM |
| CCCCCCCCCCCCNC(=O)c1cc(-c2cccc(C(F)(F)F)c2)c(OCC(=O)O)c(-c2ccccc2F)c1 [Example 109, (5′-Dodecylcarbamoyl-2″-fluoro-3-trifluoromethyl-[1,1′;3′,1″]terphenyl-2′-yloxy)-acetic acid] | 0.187 µM |
| CCCCCCCCCCCCNC(=O)c1cc(-c2ccccc2F)c(OCC(=O)O)c(-c2ccccc2F)c1 [Example 110, (5′-Dodecylcarbamoyl-2,2″-difluoro-[1,1′;3′,1″]terphenyl-2′-yloxy)-acetic acid] | 0.3 µM |
| O=C(O)COc1c(-c2ccccc2F)cc(C(=O)NCCCCCCCCc2ccccc2)cc1-c1ccccc1F [Example 111, [2,2″-Difluoro-5′-(8-phenyl-octylcarbamoyl)-[1,1′;3′,1″]terphenyl-2′-yloxy)-acetic acid] | 0.7 µM |
| CCCCCCCCCCCCNC(=O)c1cc(-c2cccc(Cl)c2)c(OCC(=O)O)c(-c2ccccc2F)c1 [Example 114, (3″-Chloro-5′-dodecylcarbamoyl-2-fluoro-[1,1′;3′,1″]terphenyl-2′-yloxy)-acetic acid] | 0.055 µM |
| O=C(O)COc1c(-c2cccc(Cl)c2)cc(C(=O)NCCCCCCCCc2ccccc2)cc1-c1ccccc1F [Example 115, [3″-Chloro-2-fluoro-5′-(8-phenyl-octylcarbamoyl)-[1,1′;3′,1″]terphenyl-2′-yloxy]-acetic acid] | 0.287 µM |
| CN(CCCCCCCCc1ccccc1)C(=O)c1cc(-c2ccccc2F)c(OCC(=O)O)c(-c2ccccc2F)c1 [Example 118, {2,2″-Difluoro-5′-[methyl-(8-phenyl-octyl)-carbamoyl]-[1,1′;3′,1″]terphenyl-2′-yloxy}-acetic acid] | 0.423 µM |
| O=C(O)COc1c(-c2cccc(Cl)c2)cc(C(=O)NCCCCCCCC[S+]([O-])c2ccc(Cl)cc2)cc1-c1cccc(Cl)c1 (stereo not drawn) [Example 119, {3,3″-Dichloro-5′-[8-(4-chloro-benzenesulfinyl)-octylcarbamoyl]-[1,1′;3′,1″]terphenyl-2′-yloxy}-acetic acid] | 0.627 µM |
| O=C(O)COc1c(-c2cccc(Cl)c2)cc(C(=O)NCCCCCCCCOc2ccc(F)cc2F)cc1-c1cccc(Cl)c1 [Example 120, {3,3″-Dichloro-5′-[8-(2,4-difluoro-phenoxy)-octylcarbamoyl]-[1,1′;3′,1″]terphenyl-2′-yloxy}-acetic acid] | 0.053 µM |

| Compound | IC50 |
| --- | --- |
| O=C(O)COc1c(-c2cccc(Cl)c2)cc(C(=O)NCCCCCCCCCCCCOc2ccc(F)cc2F)cc1-c1cccc(Cl)c1 [Example 121, {3,3″-Dichloro-5′-[12-(2,4-difluoro-phenoxy)-dodecylcarbamoyl]-[1,1′;3′,1″]terphenyl-2′-yloxy}-acetic acid] | 0.015 µM |
| O=C(O)COc1c(-c2cccc(Cl)c2)cc(C(=O)NCCCCCCCCOCc2ccc(C(F)(F)F)cc2)cc1-c1cccc(Cl)c1 [Example 122, {3,3″-Dichloro-5′-[8-(4-trifluoromethyl-benzyloxy)-octylcarbamoyl]-[1,1′;3′,1″]terphenyl-2′-yloxy}-acetic acid] | 0.092 µM |
| O=C(O)COc1c(-c2cccc(Cl)c2)cc(C(=O)N(C2CCCCC2)C2CCCCC2)cc1-c1cccc(Cl)c1 [Example 124, (3,3″-Dichloro-5′-dicyclohexylcarbamoyl-[1,1′;3′,1″]terphenyl-2′-yloxy)-acetic acid] | 0.595 µM |
| O=C(NCCCCCCCc1ccccc1)c1cc(-c2cccc(C(F)(F)F)c2)c(OCP(=O)(O)O)c(-c2cccc(C(F)(F)F)c2)c1 [Example 128, [5′-(7-Phenyl-heptylcarbamoyl)-3,3″-bis-trifluoromethyl-[1,1′:3′,1″]terphenyl-2′-yloxymethyl]-phosphonic acid] | 0.264 µM |
| O=C(NCCCCCCCc1ccccc1)c1cc(-c2cccc(C(F)(F)F)c2)c(OCc2ccc(S(=O)(=O)O)cc2)c(-c2cccc(C(F)(F)F)c2)c1 [Example 130, 4-[5′-(7-Phenyl-heptylcarbamoyl)-3,3″-bis-trifluoromethyl-[1,1′3′,1″]terphenyl-2′-yloxymethyl]-benzenesulfonic acid] | 0.056 µM |
| COc1ccc(-c2cc(-c3ccc(C(=O)NCCCCCCCc4ccccc4)cc3)cc(-c3ccc(OC)cc3)c2OCc2ccc(C(=O)O)cc2)cc1 [Example 133] | 0.102 µM |
| O=C(O)c1ccc(COc2c(-c3cccc(C(F)(F)F)c3)cc(C(=O)NCCCCCCCc3ccccc3)cc2-c2cccc(C(F)(F)F)c2)cc1 [Example 134, 4-[5′-(7-Phenyl-heptylcarbamoyl)-3,3″-bis-trifluoromethyl-[1,1′:3′,1″]terphenyl-2′-yloxymethyl]-benzoic acid] | 0.057 µM |
| CCCCCCCCCCCCNC(=O)c1cc(Br)c(OCC(=O)O)c(-c2ccc(F)c(Cl)c2)c1 [Example 135, (3-Bromo-3′-chloro-5-dodecylcarbamoyl-4′-fluoro-biphenyl-2-yloxy)acetic acid] | 0.13 µM |
| O=C(O)COc1ccc(C(=O)NCCCCCCCCc2ccccc2)cc1-c1ccc(F)c(Cl)c1 [Example 136, [3′-Chloro-4′-fluoro-5-(8-phenyl-octylcarbamoyl)-biphenyl-2-yloxy]acetic acid] | 0.455 µM |
| Cc1cc(C)cc(-c2cc(C(=O)NCCCCCCCCc3ccccc3)cc(-c3cc(C)cc(C)c3)c2OCC(=O)O)c1 [Example 141, [3,5,3″,5″-Tetramethyl-5′-(8-phenyl-octylcarbamoyl)-[1,1′:3′,1″]terphenyl-2′-yloxy]acetic acid] | 0.071 µM |
| Cc1cccc(-c2cc(C(=O)NCCCCCCCc3ccccc3)cc(-c3cccc(C)c3)c2OCCCC(=O)O)c1 [Example 146, 4-[3,3″-Dimethyl-5′-(7-phenyl-heptylcarbamoyl)-[1,1′:3′,1″]terphenyl-2′-yloxy]-butyric acid] | 0.258 µM |
| COCOc1c(-c2cccc(C=O)c2)cc(C(=O)NCCCCCCCc2ccccc2)cc1-c1cccc(C=O)c1 [Example 149, 3,3″-Diformyl-2′-methoxymethoxy-[1,1′:3′,1″]terphenyl-5′-carboxylic acid (7-phenyl-heptyl)-amide] | 0.405 µM |
| O=C(NCCCCCCCCc1ccccc1)c1cc(Br)c(O)c(-c2cccc(C(=O)OCCCCCl)c2)c1 [Example 152, 3′-Bromo-2′-hydroxy-5′-(8-phenyl-octylcarbamoyl)-biphenyl-3-carboxylic acid 4-chloro-butyl ester] | 0.396 µM |
| CCCCCCCCCCCCNC(=O)c1cc(-c2cccc(Cl)c2)c(OCC(=O)O)c(-c2cccc(C(F)(F)F)c2)c1 [Example 153, (3″-Chloro-5′-dodecylcarbamoyl-3-trifluoromethyl-[1,1′;3′,1″]terphenyl-2′-yloxy)acetic acid] | 0.098 µM |
| CCCCCCCCCCCCNC(=O)c1cc(-c2ccc(OC)cc2)c(OCC(=O)O)c(-c2cccc(C(F)(F)F)c2)c1 [Example 154, (5′-Dodecylcarbamoyl-4″-methoxy-3-trifluoromethyl-[1,1′;3′1″]terphenyl-2′-yloxy)acetic acid] | 0.129 µM |
| CCCCCCCCCCCCNC(=O)c1cc(-c2ccc(OC)cc2)c(OCC(=O)O)c(-c2ccccc2F)c1 [Example 155, (5′-Dodecylcarbamoyl-2″-fluoro-4-methoxy-[1,1′;3′,1″]terphenyl-2′-′yloxy)acetic acid] | 0.139 µM |
